One may read the pIC50 as the IC50 on a negative log10 scale, so that one unit is a factor of ten. Low readings indicate a large IC50, high ones a small IC50.

pIC50: −log10 of the molar value.

The record followed here is patent publication US11040981B2, “Pyrrolotriazine compounds and methods of inhibiting TAM kinases” (Syros Pharmaceuticals, Inc., priority 2017, dated 2021).

In one test the target is T1, AXL (Homo sapiens, UniProt P30530).
T1 sequence (P30530 26-894): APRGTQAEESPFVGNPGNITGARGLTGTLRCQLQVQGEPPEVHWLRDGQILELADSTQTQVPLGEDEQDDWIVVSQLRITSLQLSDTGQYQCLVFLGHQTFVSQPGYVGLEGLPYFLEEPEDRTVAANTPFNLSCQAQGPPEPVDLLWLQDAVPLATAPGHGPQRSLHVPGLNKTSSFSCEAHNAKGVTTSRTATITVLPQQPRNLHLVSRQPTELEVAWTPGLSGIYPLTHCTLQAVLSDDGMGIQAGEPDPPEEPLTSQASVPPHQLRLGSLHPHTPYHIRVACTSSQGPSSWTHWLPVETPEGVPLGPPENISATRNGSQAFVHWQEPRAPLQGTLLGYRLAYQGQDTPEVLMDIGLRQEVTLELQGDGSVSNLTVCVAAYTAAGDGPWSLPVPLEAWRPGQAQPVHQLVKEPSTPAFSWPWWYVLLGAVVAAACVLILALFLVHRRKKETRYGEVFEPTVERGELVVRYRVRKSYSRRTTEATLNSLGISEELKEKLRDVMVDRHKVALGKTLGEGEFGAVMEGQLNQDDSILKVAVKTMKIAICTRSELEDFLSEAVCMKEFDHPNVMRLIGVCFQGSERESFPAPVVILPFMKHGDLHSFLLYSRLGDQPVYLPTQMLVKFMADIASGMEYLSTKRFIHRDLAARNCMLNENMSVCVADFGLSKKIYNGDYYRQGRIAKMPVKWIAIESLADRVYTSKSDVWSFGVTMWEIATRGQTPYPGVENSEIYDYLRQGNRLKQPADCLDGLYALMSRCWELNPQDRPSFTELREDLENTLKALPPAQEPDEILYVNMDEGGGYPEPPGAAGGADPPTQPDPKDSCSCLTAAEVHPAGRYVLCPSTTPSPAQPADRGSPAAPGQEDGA
Kind of test: TR-FRET kinase activity assay, AXL. The format is biochemical. The conditions noted are these: ATP at Km, 60 minutes. The method, then: (§1) IC50 values for compound inhibition of AXL, FLT3, MERTK and TYRO3 activity were determined by using a TR-FRET activity assay. A polypeptide substrate with a fluorescent label is phosphorylated on a tyrosine by each enzyme, where the now phosphorylated product is bound by a Europium-labeled antibody specific to that phosphorylation site. The proximity between the antibody and the substrate gives a signal known as TR-FRET. As the enzyme is inhibited by compound, less phosphorylated peptide product is made causing a decrease in overall signal.
(§2) Activity assays were performed in a 384-well, small volume, black microplates in an active enzyme volume of 10 μL and final developed volume of 20 μL. Final assay conditions are 50 mM HEPES pH 7.5, 10 mM MgCl2, 1 mM EGTA, 0.01% Brij 35 and 1 mM DTT all at RT. Enzyme, substrate labeled peptide and compound are mixed, and then the reaction is initiated with the addition of ATP at Km concentration for each enzyme. The reaction is allowed to run 60 minutes and then quenched with a 12.5 mM EDTA (ethylenediamine tetraacetic acid) solution. The plate is then developed with the addition of Europium labeled antibody for a final volume of 20 μL and is then incubated for 30 minutes in darkness. Plates are read in a Pherastar plate reader. Data is analyzed in GraphPad PRISM.
(§3) The results of these assays are shown in Table 1, below, wherein “No.” designates compound number (FIG. 1); “A” represents a value of ≤100 nM; “B” a value of >100 nM and ≤1 μM; “C” a value of >1 μM and ≤10 μM; “D” a value of >10 μM; “ND” is not determined. The ratio of Mer to FLT3 is calculated as follows: FLT3 IC50/Mer IC50. “+” represents a ratio of >2.0 and <10; “++” represents a ratio of between 10 and 100; and “+++” represents a ratio of >100.
On the technique in general: In TR-FRET formats the signal depends on donor and acceptor labels being close together.

In another test the target is T2, FLT3 (Homo sapiens, UniProt P36888).
T2 sequence (P36888 27-993): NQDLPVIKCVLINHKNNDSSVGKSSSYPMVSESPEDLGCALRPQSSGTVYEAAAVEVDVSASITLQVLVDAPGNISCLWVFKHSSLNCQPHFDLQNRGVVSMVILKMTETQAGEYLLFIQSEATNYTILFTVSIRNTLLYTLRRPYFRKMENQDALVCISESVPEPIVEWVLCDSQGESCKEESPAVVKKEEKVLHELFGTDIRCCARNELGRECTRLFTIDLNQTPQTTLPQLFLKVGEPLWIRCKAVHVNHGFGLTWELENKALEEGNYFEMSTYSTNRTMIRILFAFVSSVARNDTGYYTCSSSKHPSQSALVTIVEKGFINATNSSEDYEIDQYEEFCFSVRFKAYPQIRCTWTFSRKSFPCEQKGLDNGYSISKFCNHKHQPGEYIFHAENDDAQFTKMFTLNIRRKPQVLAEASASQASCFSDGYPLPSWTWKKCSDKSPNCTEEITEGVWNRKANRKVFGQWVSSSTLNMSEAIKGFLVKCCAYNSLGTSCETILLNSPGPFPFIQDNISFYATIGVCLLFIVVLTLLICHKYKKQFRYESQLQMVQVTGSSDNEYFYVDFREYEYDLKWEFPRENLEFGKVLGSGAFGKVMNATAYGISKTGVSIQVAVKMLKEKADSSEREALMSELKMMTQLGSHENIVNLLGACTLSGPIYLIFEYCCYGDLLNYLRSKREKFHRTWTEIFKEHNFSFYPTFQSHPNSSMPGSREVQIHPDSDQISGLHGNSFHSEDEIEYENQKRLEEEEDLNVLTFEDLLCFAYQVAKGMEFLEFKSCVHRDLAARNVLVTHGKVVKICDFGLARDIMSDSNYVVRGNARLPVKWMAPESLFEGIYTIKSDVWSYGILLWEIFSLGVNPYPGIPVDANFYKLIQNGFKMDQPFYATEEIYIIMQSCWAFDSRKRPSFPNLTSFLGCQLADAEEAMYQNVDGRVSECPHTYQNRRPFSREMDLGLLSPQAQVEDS
In words: TR-FRET kinase activity assay, FLT3. The format is biochemical. The conditions noted are these: ATP at Km, 60 minutes. The method, then: as §1, §2, §3

On to `COCC[C@@H](C)Nc1ncc2c(-c3ccc(CN4CCOCC4)cc3)cc([C@H]3CC[C@H](O)CC3)n2n1` [Compound 212], for which the pIC50 at AXL is 6.00 to 7.00; against FLT3, 5.00 to 6.00.
Turning to `COC[C@H](C)Nc1ncc2c(-c3ccc(C)cn3)cc([C@H]3CC[C@H](O)CC3)n2n1` [Compound 258], the pIC50 on AXL was 6.00 to 7.00; against FLT3 it was 5.00 to 6.00.
Turning to `COC[C@H](C)Nc1ncc2c(-c3cncc(C(=O)N4CCOCC4)c3)cc([C@H]3CC[C@H](O)CC3)n2n1` [Compound 233], the pIC50 was 6.00 to 7.00 on AXL and 5.00 to 6.00 against FLT3.
Taken in the same sequence, the figures for `Cc1cc(-c2cc([C@H]3CC[C@H](O)CC3)n3nc(N[C@@H](C)COC(C)C)ncc23)ccn1` [Compound 215] were 6.00 to 7.00 and 5.00 to 6.00.
Turning to `C[C@@H](CC1CC1)Nc1ncc2c(-c3ccc(CN4CCN(C)CC4)cc3)cc([C@H]3CC[C@H](O)CC3)n2n1` [Compound 216], the pIC50 on AXL and at FLT3 was ≥ 7.00 each time.
`C[C@@H](CC(F)(F)F)Nc1ncc2c(-c3cnn(C4COC4)c3)cc([C@H]3CC[C@H](O)CC3)n2n1` [Compound 269]: the pIC50 against AXL and at FLT3 was ≥ 7.00 throughout.
On to `COC[C@H](C)Nc1ncc2c(-c3cncc(F)c3)cc([C@H]3CC[C@H](O)CC3)n2n1` [Compound 195], for which the figures for the pIC50 against AXL and on FLT3 were 6.00 to 7.00 and 5.00 to 6.00, respectively.
As to `COC[C@H](C)Nc1ncc2c(-c3cncc(S(C)(=O)=O)c3)cc([C@H]3CC[C@H](O)CC3)n2n1` [Compound 194], the pIC50 at AXL is 6.00 to 7.00; against FLT3, 5.00 to 6.00.
Taken in the same sequence, the figures for `COC[C@H](C)Nc1ncc2c(-c3cccc(CN4CCC(F)(F)C4)c3)cc([C@H]3CC[C@H](O)CC3)n2n1` [Compound 223] were 6.00 to 7.00 and 5.00 to 6.00.
Turning to `COC[C@H](C)Nc1ncc2c(-c3cn(C)nc3C)cc([C@H]3CC[C@H](O)CC3)n2n1` [Compound 260], the pIC50 at AXL and against FLT3 was 6.00 to 7.00 throughout.
For the molecule `COC[C@H](C)Nc1ncc2c(-c3ccc4c(c3)CC(=O)N4)cc([C@H]3CC[C@H](O)CC3)n2n1` [Compound 251], the pIC50 at AXL and against FLT3 was 6.00 to 7.00 throughout.
With `COC[C@H](C)Nc1ncc2c(-c3ccn(C)n3)cc([C@H]3CC[C@H](O)CC3)n2n1` [Compound 208], the pIC50 at AXL was 6.00 to 7.00; at FLT3 it was 5.00 to 6.00.
Regarding `Cc1cc(-c2cc([C@H]3CC[C@H](O)CC3)n3nc(N[C@@H](C)CC(F)(F)F)ncc23)ccn1` [Compound 213], the pIC50 against AXL and at FLT3 was ≥ 7.00 throughout.
Take `CNC(=O)Cn1cc(-c2cc([C@H]3CC[C@H](O)CC3)n3nc(N[C@@H](C)COC)ncc23)cn1` [Compound 241]: the pIC50 on AXL and against FLT3 was 6.00 to 7.00 throughout.
Take `COC[C@H](C)Nc1ncc2c(-c3ccc(C)nc3)cc([C@H]3CC[C@H](O)CC3)n2n1` [Compound 246]: the pIC50 is ≥ 7.00 against AXL and 6.00 to 7.00 on FLT3.
Turning to `C[C@@H](COC(F)F)Nc1ncc2c(-c3cnn(C4COC4)c3)cc([C@H]3CC[C@H](O)CC3)n2n1` [Compound 270], the negative-log IC50 (pIC50) on AXL and against FLT3 was ≥ 7.00 throughout.
`COC[C@H](C)Nc1ncc2c(-c3cnn([C@H]4CCOC4)c3)cc([C@H]3CC[C@H](O)CC3)n2n1` [Compound 243]: the pIC50 at AXL was ≥ 7.00; on FLT3, 6.00 to 7.00.
For the molecule `COC[C@H](C)Nc1ncc2c(-c3cn(C[Si](C)(C)C)nn3)cc([C@H]3CC[C@H](O)CC3)n2n1` [Compound 248], the figures for the pIC50 against AXL and at FLT3 were 6.00 to 7.00 and 5.00 to 6.00, respectively.
Consider `COC[C@H](C)Nc1ncc2c(-c3ccc(C(=O)N4CCCC4)cc3)cc([C@H]3CC[C@H](O)CC3)n2n1` [Compound 196], for which the figures for the pIC50 against AXL and on FLT3 were ≥ 7.00 and 6.00 to 7.00, respectively.
On to `CNC(=O)c1cncc(-c2cc([C@H]3CC[C@H](O)CC3)n3nc(N[C@@H](C)COC)ncc23)c1` [Compound 245], for which the negative-log IC50 (pIC50) at AXL is 6.00 to 7.00; against FLT3, 5.00 to 6.00.
For the molecule `COC[C@H](C)Nc1ncc2c(-c3cncc(C(N)=O)c3)cc([C@H]3CC[C@H](O)CC3)n2n1` [Compound 247], the pIC50 at AXL is 6.00 to 7.00; on FLT3, 5.00 to 6.00.
As for `CCCCC[C@H](C)Nc1ncc2c(-c3ccc(CN4CCN(C)CC4)cc3)cc([C@H]3CC[C@H](O)CC3)n2n1` [Compound 104], the pIC50 against AXL was ≥ 7.00; at FLT3, 6.00 to 7.00.
Consider `COC[C@H](C)Nc1ncc2c(-c3cnn(C(C)(C)CO)c3)cc([C@H]3CC[C@H](O)CC3)n2n1` [Compound 265], for which the figures for the pIC50 on AXL and against FLT3 were ≥ 7.00 and 5.00 to 6.00, respectively.
On to `COC[C@H](C)Nc1ncc2c(-c3ccc(C(=O)NC(C)C)nc3)cc([C@H]3CC[C@H](O)CC3)n2n1` [Compound 228, 5-(7-((1r,4S)-4-hydroxycyclohexyl)-2-(((S)-1-methoxypropan-2-yl)amino)pyrrolo[2,1-f][1,2,4]triazin-5-yl)-N-isopropylpicolinamide], for which the figures for the pIC50 on AXL and against FLT3 were 6.00 to 7.00 and 5.00 to 6.00, respectively.
For the molecule `COCC(C)Nc1ncc2c(-c3ccc4nccn4c3)cc(C3CCC(O)CC3)n2n1` (stereo not shown) [Compound 193], the pIC50 was ≥ 7.00 against AXL and 5.00 to 6.00 against FLT3.
On to `COC[C@H](C)Nc1ncc2c(-c3cn(C)nn3)cc([C@H]3CC[C@H](O)CC3)n2n1` [Compound 250, (trans)-4-(2-(((S)-1-methoxypropan-2-yl)amino)-5-(1-methyl-1H-1,2,3-triazol-4-yl)pyrrolo[2,1-f][1,2,4]triazin-7-yl)cyclohexanol], for which the pIC50 on AXL was 6.00 to 7.00; against FLT3, 5.00 to 6.00.
On to `COC[C@H](C)Nc1ncc2c(-c3cccc4c3CNC4=O)cc([C@H]3CC[C@H](O)CC3)n2n1` [Compound 210], for which the pIC50 on AXL is 6.00 to 7.00; on FLT3, 5.00 to 6.00.
With `C[C@H](Nc1ncc2c(-c3ccc(CN4CCOCC4)cc3)cc([C@H]3CC[C@H](O)CC3)n2n1)[C@H]1CCCO1` [Compound 204], the pIC50 on AXL and on FLT3 was 5.00 to 6.00 throughout.
As for `COC[C@H](C)Nc1ncc2c(-c3cnn(CCC#N)c3)cc([C@H]3CC[C@H](O)CC3)n2n1` [Compound 222], the pIC50 is ≥ 7.00 at AXL and 6.00 to 7.00 at FLT3.
